Earlier results on 12 compounds are cited in publication PMC8672822 (RSC Medicinal Chemistry, 2021).

Where two headings read alike, the source gives them in different places.

Data set [1] relates to DC-SIGN. Conditions: SPR competition.
For data set [2], the system named is DC-SIGN. Conditions: relative to plate assay.
Data set [3] deals with DC-SIGN.
Data set [4] addresses DC-SIGN. Conditions: SPR direct.
For data set [5], the target named is DC-SIGN. The note with it: ITC.
The test system of data set [6] is Langerin.
For data set [7], the system named is Langerin. The source holds these as a separate data set.
For data set [8], the system named is DC-SIGN. Conditions: monovalent.
For data set [9] the following is noted: in comparison to Man-α-1,2-Man.
In the next data set the test system is murine Mincle. The note with it: murine isoform.
The test system of another data set is human Mincle. The note with it: human isoform.
Data set [10] has as its system peripheral blood mononuclear cells (PBMCs) or bone marrow-derived macrophages (BMDM).

On to 2-C-aminomethyl-D-mannose [compound 21], for which the IC50 with DC-SIGN [1] was 350 µM. `CC(C)OC(=O)c1ccc(-c2ccc(/C=C3\C(=O)N(c4ccc(S(N)(=O)=O)cc4)N=C3C(F)(F)F)o2)cc1` [compound 33]: the “decrease in affinity in cellular assay” value with DC-SIGN [2] is “up to 100 fold”. With `NC(=O)c1ccc(CCCC2Nc3ccc(C(=O)N4CCN(c5ncccn5)CC4)cc3NC2=O)cc1` (stereo not shown) [compound 35], the aqueous solubility entry is recorded as “improved aqueous solubility”.

With `NCc1cn([C@@H]2[C@@H](O[C@H]3C[C@H](C(=O)NCc4ccc(CO)cc4)[C@@H](C(=O)NCc4ccc(CO)cc4)C[C@@H]3OCCCl)O[C@H](CO)[C@@H](O)[C@@H]2O)nn1` [compound 27], the IC50 with DC-SIGN [3] (SPR competitive) is 76 µM. Besides, the Kd was 53 µM on DC-SIGN [4] and 52 µM at DC-SIGN [5]. In addition, in the data set with Langerin [6], the “selectivity for DC-SIGN over Langerin” value is recorded as “full selectivity against Langerin”. As to `CC(=O)NCCO[C@@H]1O[C@H](CO)[C@@H](O)[C@H](O)[C@H]1NS(=O)(=O)c1ccc(C)cc1` [compound 19], the “increase in binding affinity compared to the reference N-acetyl glucosamine” value in the data set on Langerin [7] is 13 fold. For the compound `[N-]=[N+]=NCCO[C@H]1C[C@H](C(=O)NCc2ccc(CO)cc2)[C@@H](C(=O)NCc2ccc(CO)cc2)C[C@@H]1O[C@H]1O[C@H](CN)[C@@H](O)[C@H](O)[C@@H]1O` [compound 26], the IC50 with DC-SIGN [3] (SPR competitive) was 254 µM. Besides, the Kd on DC-SIGN [4] is 310 µM; at DC-SIGN [5], 171 µM. Further, in the data set with Langerin [6], the “selectivity for DC-SIGN over Langerin” value is recorded as “fully selective for DC-SIGN over Langerin”. On to `OC[C@H]1O[C@H](O[C@H]2O[C@H](CO)[C@@H](O)[C@H](O)[C@H]2O)[C@H](O)[C@@H](O)[C@@H]1O` [trehalose], for which the macrophage activation entry with macrophage is “no effect”. For `NC(=O)[C@H](CCC(=O)O)NC(=O)[C@H]1C[C@@H](O)[C@H](O)[C@H](O)[C@H]1SCCCCSCc1cccc(F)c1` [compound 22], the IC50 in the data set with DC-SIGN [8] is 3200 µM.

On to `[N-]=[N+]=NCCO[C@H]1C[C@H](C(=O)NCc2ccc(CO)cc2)[C@@H](C(=O)NCc2ccc(CO)cc2)C[C@@H]1O[C@H]1O[C@H](CO)[C@@H](O)[C@H](O)[C@@H]1O` [compound 25], for which the IC50 in the data set with DC-SIGN [3] (SPR competition) is 300 µM. `NS(=O)(=O)c1ccc(CCCC2Nc3ccc(C(=O)N4CCN(c5ccncc5)CC4)cc3NC2=O)cc1` (stereo not shown) [compound 36]: the aqueous solubility entry is listed as “improved aqueous solubility”.

Consider `COC(=O)[C@H]1C[C@H](OCCN)[C@@H](O[C@H]2O[C@H](CO)[C@@H](O)[C@H](O)[C@@H]2O)C[C@@H]1C(=O)OC` [compound 24], for which, in the data set with DC-SIGN+ cells, the “activity in comparison to Man-α-1,2-Man” value is listed as “three times more active”. Moreover, in data set [9], the “resistance towards enzymatic digestion” value is on record as “more resistant”. Take `Cc1cc(O)cc(O)c1C(=O)OC[C@H]1O[C@H](O[C@H]2O[C@H](COC(=O)c3c(C)cc(O)cc3O)[C@@H](O)[C@H](O)[C@H]2O)[C@H](O)[C@@H](O)[C@@H]1O` [compound 3, brartemicin]: the Ki on bovine Mincle is 5.5 µM. The binding entry in the data set on murine Mincle and in the data set on human Mincle was “no binding” in each case. Moreover, in data set [10], the Mincle-induced immune activation result is reported as “no or a less effective Mincle-induced immune activation”.
